± gives the expanded uncertainty stated by the source.
Conditions: for molar entropy: 101.33 kPa, Vacuum adiabatic calorimetry

Work on `CC(C)(C)Cc1ccccc1` [(2,2-dimethylpropyl)benzene] yielded a molar entropy (5 K, Crystal) of 0.1197 ± 0.017 J/K/mol, a molar entropy (10 K, Crystal) of 0.956 ± 0.027 J/K/mol and a molar entropy (15 K, Crystal) of 3.026 ± 0.047 J/K/mol. It also gave a molar entropy (20 K, Crystal) of 6.298 ± 0.07 J/K/mol, a molar entropy (25 K, Crystal) of 10.58 ± 0.09 J/K/mol and a molar entropy (30 K, Crystal) of 15.48 ± 0.11 J/K/mol. It also gave a molar entropy (35 K, Crystal) of 20.64 ± 0.12 J/K/mol, a molar entropy (40 K, Crystal) of 25.96 ± 0.14 J/K/mol and a molar entropy (45 K, Crystal) of 31.32 ± 0.16 J/K/mol. For the same compound, the molar entropy (50 K, Crystal) was 36.64 ± 0.17 J/K/mol, the molar entropy (60 K, Crystal) was 46.98 ± 0.2 J/K/mol and the molar entropy (70 K, Crystal) was 57.07 ± 0.23 J/K/mol. The molar entropy (80 K, Crystal) was 66.82 ± 0.26 J/K/mol, the molar entropy (90 K, Crystal) was 76.28 ± 0.41 J/K/mol and the molar entropy (100 K, Crystal) was 85.56 ± 0.43 J/K/mol. For the same compound, the molar entropy (110 K, Crystal) was 94.62 ± 0.44 J/K/mol, the molar entropy (120 K, Crystal) was 103.5 ± 0.5 J/K/mol and the molar entropy (130 K, Crystal) was 112.2 ± 0.5 J/K/mol. For the same compound, the molar entropy (140 K, Crystal) was 120.9 ± 0.5 J/K/mol, the molar entropy (150 K, Crystal) was 129.4 ± 0.5 J/K/mol and the molar entropy (160 K, Crystal) was 137.8 ± 0.5 J/K/mol. The molar entropy (170 K, Crystal) was 146.1 ± 0.5 J/K/mol, the molar entropy (180 K, Crystal) was 154.2 ± 0.5 J/K/mol and the molar entropy (190 K, Crystal) was 162.5 ± 0.5 J/K/mol. It also gave a molar entropy (200 K, Crystal) of 170.5 ± 0.6 J/K/mol, a molar entropy (210 K, Crystal) of 178.6 ± 0.6 J/K/mol and a molar entropy (220 K, Crystal) of 186.7 ± 0.6 J/K/mol. The molar entropy (230 K, Crystal) was 194.6 ± 0.6 J/K/mol, the molar entropy (240 K, Crystal) was 202.5 ± 0.6 J/K/mol and the molar entropy (250 K, Crystal) was 210.4 ± 0.6 J/K/mol. For the same compound, the molar entropy (255.43 K, Crystal) was 214.7 ± 0.6 J/K/mol, the molar entropy (255.43 K, Liquid) was 274.9 ± 0.7 J/K/mol and the molar entropy (260 K, Liquid) was 279.4 ± 0.7 J/K/mol. It also gave a molar entropy (270 K, Liquid) of 288.9 ± 0.7 J/K/mol, a molar entropy (280 K, Liquid) of 298.4 ± 0.7 J/K/mol and a molar entropy (290 K, Liquid) of 307.7 ± 0.8 J/K/mol. It also gave a molar entropy (298.15 K, Liquid) of 315.2 ± 0.8 J/K/mol, a molar entropy (300 K, Liquid) of 316.9 ± 0.8 J/K/mol and a molar entropy (310 K, Liquid) of 325.8 ± 0.8 J/K/mol. It also gave a molar entropy (320 K, Liquid) of 334.7 ± 0.8 J/K/mol, a molar entropy (330 K, Liquid) of 343.4 ± 0.8 J/K/mol and a molar entropy (340 K, Liquid) of 351.9 ± 0.8 J/K/mol. The molar entropy (350 K, Liquid) was 360.4 ± 0.8 J/K/mol and the Triple point temperature (Crystal, Adiabatic calorimetry) was 255.43 ± 0.05 K.
